Laboratory results published in patent US12050224B2, “Compounds useful as near-infrared fluorescent probes selectively binding to tau aggregates and method of preparing the same” (KOREA INSTITUTE OF SCIENCE AND TECHNOLOGY, priority 2020, dated 2024).

Key:
[1] = target: T1, tau aggregates (Tau-K18 protein) (Homo sapiens, UniProt P10636); assay: In vitro binding assay (fluorescence labeling ability) to tau aggregates; settings: for SIaβ: selectivity index = fluorescence intensity of probe bound to Tau aggregate / bound to Aβ aggregate / SItaumono: selectivity index, tau aggregate versus tau monomer / FItau: fold increase = fluorescence intensity of probe bound to tau aggregate / probe (free): compound 10 μM; for FItau: fold increase = fluorescence intensity of probe bound to tau aggregate / probe (free): PBS, 30 min incubation
T1 construct: aggregation of Tau-K18 protein (0.5 mg/ml in PBS) purified and isolated from E. coli; made in house; host or cells: E. coli
T1 sequence (P10636 561-685 limits assumed): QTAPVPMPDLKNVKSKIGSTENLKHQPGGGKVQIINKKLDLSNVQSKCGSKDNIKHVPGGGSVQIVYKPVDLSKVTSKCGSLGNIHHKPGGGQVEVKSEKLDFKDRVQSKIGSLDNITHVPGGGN
Procedure: (§1) Experimental Example 2-1: Tau and amyloid beta aggregation induction For amyloid aggregation induction, the synthesized Abeta40 (Amyloid Beta 40) peptide was dissolved in PBS at a concentration of 0.5 mg/ml to induce aggregation for 7 days at 37° C. and 200 rpm with shaking. To induce aggregation of tau proteins, aggregation of Tau-K18 protein (0.5 mg/ml in PBS) purified and isolated from E. coli with heparin (0.1 mg/ml) and DTT (100 μM) was induced at 37° C. and 200 rpm for 7 days under shaking conditions. […] At this time, thioflavin S (Th S), which is known to bind to beta-sheet structures such as tau and amyloid aggregates, was used as a control group (Ex: 430 nm, Em: 480-610 nm). Specifically, in order to determine the labeling ability of newly synthesized compounds to tau aggregate proteins, a 25 μl dilution of a 10 μM labeling substance in PBS and 25 id of a 0.125 mg/ml tau or amyloid pre-aggregate or aggregate diluted in PBS were each incubated for 30 minutes, and then a fluorescence spectrum reaction was measured using a spectrophotometer. Selectivity analysis for tau aggregates and amyloid beta aggregates of the novel synthetic compounds of the present invention was performed as described above, and the resulting in vitro fluorescence changes are summarized in Table 2 and FIG. 1 below.

[2] = target: T2, amyloid beta aggregates (Abeta40) (Homo sapiens, UniProt P05067); assay: In vitro binding assay (fluorescence labeling ability) to amyloid beta aggregates; settings: compound 10 μM, PBS, 30 min incubation
T2 construct: the synthesized Abeta40 (Amyloid Beta 40) peptide was dissolved in PBS; host or cells: synthetic peptide
T2 sequence (P05067 672-711 limits assumed): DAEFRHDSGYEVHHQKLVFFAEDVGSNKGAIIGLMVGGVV
Procedure: as §1

[3] = Measurement of absorbance and fluorescence of synthesized compound in ethanol; format: physicochemical; settings: 10 μM in ethanol; for λem: Maximum emission wavelength / λex: Maximum excitation wavelength: average of three measurements; for Stokes shift: difference between excitation and emission
Procedure: In order to investigate the optical properties of the newly synthesized compound in the present invention, the absorbance was measured using a V-730 UV-visible spectrophotometer manufactured by JASCO, and fluorescence was measured using a FlexStation 3 multi-mode microplate reader manufactured by Molecular Devices. Absorbance and fluorescence were measured three times at a concentration of 10 μM in ethanol, and the average thereof is shown in Table 1 below. At this time, T807 (AV-1451) as a Tau positron-emission-tomography (PET) tracer and Thioflavin S, which are commercially available to detect tau production in vivo, were used as a control group.

[4] = target: bovine serum albumin (BSA) (Bos taurus, UniProt P02769); assay: Measurement of non-specific binding using BSA; settings: compound 10 μM, 0.25 mg/ml BSA, 30 min incubation
Sequence of bovine serum albumin (BSA) (P02769 25-607): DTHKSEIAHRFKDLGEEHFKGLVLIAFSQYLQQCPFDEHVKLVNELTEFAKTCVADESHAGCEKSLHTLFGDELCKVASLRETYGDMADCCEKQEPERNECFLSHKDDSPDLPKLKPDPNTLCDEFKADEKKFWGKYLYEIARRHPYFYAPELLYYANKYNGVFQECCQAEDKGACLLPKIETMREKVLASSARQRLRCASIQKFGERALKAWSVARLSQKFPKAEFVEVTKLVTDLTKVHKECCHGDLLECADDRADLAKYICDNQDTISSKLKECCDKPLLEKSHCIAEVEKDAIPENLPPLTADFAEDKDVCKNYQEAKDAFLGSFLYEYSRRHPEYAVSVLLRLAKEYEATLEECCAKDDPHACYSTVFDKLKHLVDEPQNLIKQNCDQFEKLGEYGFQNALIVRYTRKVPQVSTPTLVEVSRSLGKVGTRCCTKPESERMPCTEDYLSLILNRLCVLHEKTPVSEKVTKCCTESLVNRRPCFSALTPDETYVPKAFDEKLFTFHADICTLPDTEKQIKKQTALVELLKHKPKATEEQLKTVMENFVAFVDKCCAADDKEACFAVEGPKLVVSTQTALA
Procedure: In order to exclude non-specific binding of the compound to serum, reactivity between the compound and bovine serum albumin (BSA) was further tested. 25 μl of a 10 μM compound was incubated along with 25 μl of 0.25 mg/ml BSA for 30 minutes, and then the fluorescence spectrum reaction was measured using a spectrophotometer. The BSA response was conducted to identify non-selective binding to other proteins in the blood when applied to patients as an imaging agent.

| SMILES | SIaβ: selectivity index = fluorescence intensity of probe bound to Tau aggregate / bound to Aβ aggregate [1] | SItaumono: selectivity index, tau aggregate versus tau monomer [1] | FItau: fold increase = fluorescence intensity of probe bound to tau aggregate / probe (free) [1] | FIAβ: fold increase = fluorescence intensity of probe bound to Aβ aggregate / probe (free) [2] | λem: Maximum emission wavelength [3] [nm] | λex: Maximum excitation wavelength [3] [nm] | Stokes shift [3] [nm] | FIBSA: fold increase = fluorescence intensity of probe bound to BSA / probe (free) [4] | selectivity for tau aggregates over amyloid aggregates ([1]; in vitro screening as fluorescent probes) [times] |
| --- | --- | --- | --- | --- | --- | --- | --- | --- | --- |
| COc1ccc2nc(/C=C/C(=O)c3ccc(C)cc3)ccc2c1 [Compound 13d, (E)-1-(4-tolyl)-3-(6-methoxyquinolin-2-yl)prop-2-en-1-one] | 3.2 | 4.8 | 6.05 | 1.88 | 454 | 314 | 140 | 1.57 |  |
| COc1ccc2nc(/C=C/c3ccc(C(F)(F)F)cc3)ccc2c1 [Compound 14a, (E)-6-methoxy-2-(4-(trifluoromethyl)styryl)quinolone] | 1.9 | 2.0 | 1.01 | 0.54 | 415 | 359 | 56 | 0.60 |  |
| COc1ccc2nc(/C=C/C=C/c3cccc(Cl)c3)ccc2c1 [Compound 15f, 6-methoxy-2-((1E,3E)-4-(3-chlorophenyl)buta-1,3-dien-1-yl)quinolone] | 1.2 | 4.4 | 3.91 | 3.27 | 415 | 360 | 55 | 1.75 |  |
| COc1ccc2nc(/C=C/C=C/c3ccc(N(C)C)nc3)ccc2c1 [Compound 15d, 5-((1E,3E)-4-(6-methoxyquinolin-2-yl)buta-1,3-dien-1-yl)-N,N-dimethylpyridin-2-amine] | 1.1 | 1.3 | 1.33 | 1.25 | 520 | 402 | 118 | 1.05 |  |
| COc1ccc2nc(/C=C/c3ccncc3)ccc2c1 [Compound 14b, (E)-6-methoxy-2-(2-(pyridin-4-yl)vinyl)quinolone] | 1.4 | 1.3 | 0.79 | 0.57 | 420 | 357 | 63 | 0.61 |  |
| COc1ccc2nc(/C=C/C(=O)c3ccc(N(C)C)cc3)ccc2c1 [Compound 13a, (E)-1-(4-(dimethylamino)phenyl)-3-(6-methoxyquinolin-2-yl)prop-2-en-1-one] | 4.6 | 5.2 | 5.12 | 1.10 | 601 | 339 | 202 | 1.23 | 4.6 |
